# Where two headings read alike, the source gives them in different places.
# Tested on: FRDA fibroblasts
# Assay: Rescue of FRDA fibroblasts stressed by L-buthionine-(S,R)-sulfoximine (BSO), viability by Calcein AM fluorescence
# Assay type: cell-based, human
# Settings: for EC50: BSO-stressed (1 mM) FRDA fibroblasts GM04078
# Method: An initial screen was performed to identify compounds effective for the amelioration of redox disorders. Test samples, 4 reference compounds (idebenone, decylubiquinone, Trolox and α-tocopherol acetate), and solvent controls were tested for their ability to rescue FRDA fibroblasts stressed by addition of L-buthionine-(S,R)-sulfoximine (BSO), as described in Jauslin et al., Hum. Mol. Genet. 11(24):3055 (2002), Jauslin et al., FASEB J. 17:1972-4 (2003), and International Patent Application WO 2004/003565. […] This specific BSO-mediated cell death can be prevented by administration of antioxidants or molecules involved in the antioxidant pathway, such as α-tocopherol, short chain quinones, selenium, or small molecule glutathione peroxidase mimetics. However, antioxidants differ in their potency, i.e. the concentration at which they are able to rescue BSO-stressed FRDA fibroblasts. With this assay EC50 concentrations of the test compounds were determined and compared to known reference antioxidants.
# MEM (a medium enriched in amino acids and vitamins, catalog no. 1-31F24-I) and Medium 199 (M199, catalog no. 1-21F224) with Earle's Balanced Salts, without phenol red, were purchased from Bioconcept. Fetal Calf Serum was obtained from PAA Laboratories. Basic fibroblast growth factor and epidermal growth factor were purchased from PeproTech. Penicillin-streptomycin-glutamine mix, L-buthionine (S,R)-sulfoximine, (+)-α-tocopherol acetate, decylubiquinone, and insulin from bovine pancreas were purchased from Sigma. Trolox (6-hydroxy-2,5,7,8-tetramethylchromane-2-carboxylic acid) was obtained from Fluka. Idebenone was obtained from Chemo Iberica. Calcein AM was purchased from Molecular Probes. Cell culture medium was made by combining 125 ml M199 EBS, 50 ml Fetal Calf Serum, 100 U/ml penicillin, 100 μg/ml streptomycin, 2 mM glutamine, 10 μg/ml insulin, 10 ng/ml EGF, and 10 ng/ml bFGF; MEM EBS was added to make the volume up to 500 ml. A 10 mM BSO solution was prepared by dissolving 444 mg BSO in 200 ml of medium with subsequent filter-sterilization. During the course of the experiments, this solution was stored at +4° C. The cells were obtained from the Coriell Cell Repositories (Camden, N.J.; repository number GM04078) and grown in 10 cm tissue culture plates. Every third day, they were split at a 1:3 ratio.
# The test samples were supplied in 1.5 ml glass vials. The compounds were diluted with DMSO, ethanol or PBS to result in a 5 mM stock solution. Once dissolved, they were stored at −20° C. Reference antioxidants (idebenone, decylubiquinone, α-tocopherol acetate and trolox) were dissolved in DMSO.
# Test samples were screened according to the following protocol: A culture with FRDA fibroblasts was started from a 1 ml vial with approximately 500,000 cells stored in liquid nitrogen. Cells were propagated in 10 cm cell culture dishes by splitting every third day in a ratio of 1:3 until nine plates were available. Once confluent, fibroblasts were harvested. For 54 micro titer plates (96 well-MTP) a total of 14.3 million cells (passage eight) were re-suspended in 480 ml medium, corresponding to 100 μl medium with 3,000 cells/well. The remaining cells were distributed in 10 cm cell culture plates (500,000 cells/plate) for propagation. The plates were incubated overnight at 37° C. in a atmosphere with 95% humidity and 5% CO2 to allow attachment of the cells to the culture plate.
# MTP medium (243 μl) was added to a well of the microtiter plate. The test compounds were unfrozen, and 7.5 μl of a 5 mM stock solution was dissolved in the well containing 243 μl medium, resulting in a 150 μM master solution. Serial dilutions from the master solution were made. The period between the single dilution steps was kept as short as possible (generally less than 1 second).
# Plates were kept overnight in the cell culture incubator. The next day, 10 μl of a 10 mM BSO solution were added to the wells, resulting in a 1 mM final BSO concentration. […]
SMILES,"EC50 (average of three experiments, read-out: EC50 Average) [nM]","EC50 (first of three experiments, read-out: EC50 Value 1) [nM]","EC50 (second of three experiments, read-out: EC50 Value 2) [nM]","EC50 (third of three experiments, read-out: EC50 Value 3) [nM]","EC50 (Homo sapiens, average of three experiments, read-out: EC50 Average) [nM]","EC50 (Homo sapiens, first of three experiments, read-out: EC50 Value 1) [nM]","EC50 (Homo sapiens, second of three experiments, read-out: EC50 Value 2) [nM]","EC50 fold lower than alpha-D-tocopherol (human cell culture model of FRDA, relative to alpha-D-tocopherol)","EC50 fold lower than idebenone (human cell culture models of FRDA, relative to idebenone)"
"CC(=O)Oc1c(C)c(C)c2c(c1C)CC[C@@](C)(CCC[C@H](C)CCC[C@H](C)CCCC(C)C)O2 [α-tocopherol acetate, (+)-α-tocopherol acetate, reference compound]",300,400,150,350,,,,,
"CC1=C(C)C(=O)C(CC[C@](C)(O)CCC[C@H](C)CCC[C@H](C)CCCC(C)C)=C(C)C1=O [α-tocopherol quinone, 2-[(3R,7R,11R)-3-hydroxy-3,7,11,15-tetramethylhexadecyl]-3,5,6-trimethyl-2,5-cyclohexadiene-1,4-dione]",,,,,0.0014,0.001,0.003,10^4 fold,10^5 fold

# From patent publication US11021424B2, “Redox-active therapeutics for treatment of mitochondrial diseases and other conditions and modulation of energy biomarkers” (PTC THERAPEUTICS, INC., priority 2005, dated 2021)
